Assay results as given in patent publication US11236090B2, “Substituted glutarimides as CDK inhibitors” (SHANGHAI MEIZER PHARMACEUTICALS CO., LTD., priority 2017, dated 2022).

Key:
[1] = biological target: T1, CDK6 (Homo sapiens, UniProt Q00534); assay: CDK6 protein degradation activity by Western blot in MCF-7 cells; format: cell-based; parameters: host or cells: MCF-7; conditions: MCF7, compound 1 μM, 24 hours
Protocol: (§1) Cell lines: MCF-7 cell lines (human breast cancer cells, available from ATCC) were cultured in MEM medium containing 10% calf serum in a 37° C., 5% CO2, and saturated humidity incubator. DMSO control group and compound intervention group (1 μM) were set. Cells were collected after the treatment for 24 hours, then 100 μL of pre-chilled cell lysate was added and cells were lysed on ice for 30 minutes, total cell protein was extracted, and protein concentration was determined and quantified by bicinchoninic acid method. After routine gelatinization, loading, electrophoresis, then transferring to membrane and blocking, rabbit anti-human CDK4 (1:450) and rabbit anti-human CDK6 (1:150) were added and incubated at 4° C. overnight. The mixture was rinsed and then secondary antibody IgG (1:5000) was added. After the rinsing it was developed by the ECL developing solution, the Bio-Rad gel imaging system was used for scanning and imaging, and the computer software was used for analysis. […] (GAPDH) was used as an internal control. Image J software was used to analyze the gray scale of each band to calculate the degradation rate of the compound to degrade CDK4/6 protein.
Target sequence in this assay (Q00534 whole entry): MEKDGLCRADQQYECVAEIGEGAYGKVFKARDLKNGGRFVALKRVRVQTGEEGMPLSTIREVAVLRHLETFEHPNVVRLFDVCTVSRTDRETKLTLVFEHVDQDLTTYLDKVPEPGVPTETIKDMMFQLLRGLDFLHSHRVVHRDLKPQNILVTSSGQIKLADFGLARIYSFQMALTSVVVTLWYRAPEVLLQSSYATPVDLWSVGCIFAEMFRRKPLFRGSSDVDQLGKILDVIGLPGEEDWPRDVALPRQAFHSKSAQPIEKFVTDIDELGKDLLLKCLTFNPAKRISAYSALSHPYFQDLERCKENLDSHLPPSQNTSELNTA

[2] = biological target: T2, CDK4 (Homo sapiens, UniProt P11802); assay: CDK4 protein degradation activity by Western blot in MCF-7 cells; format: cell-based; parameters: host or cells: MCF-7; conditions: MCF7, compound 1 μM, 24 hours
Protocol: as §1
Target sequence in this assay (P11802 whole entry): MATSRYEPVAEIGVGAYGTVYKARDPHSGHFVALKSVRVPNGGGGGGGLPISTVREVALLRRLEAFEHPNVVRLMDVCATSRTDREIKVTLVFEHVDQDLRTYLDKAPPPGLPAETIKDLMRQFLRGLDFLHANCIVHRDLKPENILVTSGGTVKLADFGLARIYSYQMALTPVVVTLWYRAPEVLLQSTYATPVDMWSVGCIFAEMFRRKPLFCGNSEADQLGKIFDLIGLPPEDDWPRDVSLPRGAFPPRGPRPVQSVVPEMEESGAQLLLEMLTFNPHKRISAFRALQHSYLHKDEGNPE

[3] = biological target: T2, CDK4; assay: CDK4 inhibition by Caliper assay; format: biochemical; conditions: compound 100 nM
Protocol: (§2) The experimental steps were as follows:
(§3) Preparation of 1×kinase reaction buffer (50 mM HEPES, PH 7.5; 0.0015% Brij-35) and kinase reaction termination solution (100 mM HEPES, PH 7.5; 0.0015% Brij-35; 0.2% Coating Reagent; 50 mM EDTA) preparation of experimental samples: 100 μL of 5 μM sample solution (dissolved in 100% DMSO) was added to a 96-well plate to obtain a 50×sample solution. As controls, two wells containing only 100 μL of 100% DMSO were set on the same plate. One was served as a control without samples and the other was served as a control without enzymes. 10 μL of sample and 90 μL of 1×kinase reaction buffer were added to a 96-well plate as a transfer plate. The transfer plate was shaken for 10 minutes.
(§4) Preparation of the test plate: taking 5 μL of each of the prepared samples in the 96-well transfer plate into a 384-well plate. Kinase reaction: to 5 μL of 5×compound solution (dissolved in DMSO, diluted 10 times with water) was added 10 μL of 2.5×CDK4/6 kinase solution (kinase was diluted with 1×kinase reaction buffer), which was incubated at room temperature for 10 min, and then 10 μL of 2.5×substrate peptide solution (FAM-labeled peptide and ATP were diluted with 1×kinase reaction buffer) was added. Termination of the kinase reaction: 25 μL of kinase reaction termination solution was added after being reacted at 28° C. for a period of time. The fluorescence (F) was tested on a Caliper and data was collected. The inhibition rate of kinase activity was calculated: the percent inhibition rate of kinase activity=(FDMSO control−Fsample)/(FDMSO control−Fnegative control)×100%, with DMSO as the solution control, and no kinase as the negative control.
Target sequence in this assay (P11802 whole entry, species assumed): as the sequence (P11802 whole entry) above
Target sequence in this assay (P30281 whole entry partner, species assumed): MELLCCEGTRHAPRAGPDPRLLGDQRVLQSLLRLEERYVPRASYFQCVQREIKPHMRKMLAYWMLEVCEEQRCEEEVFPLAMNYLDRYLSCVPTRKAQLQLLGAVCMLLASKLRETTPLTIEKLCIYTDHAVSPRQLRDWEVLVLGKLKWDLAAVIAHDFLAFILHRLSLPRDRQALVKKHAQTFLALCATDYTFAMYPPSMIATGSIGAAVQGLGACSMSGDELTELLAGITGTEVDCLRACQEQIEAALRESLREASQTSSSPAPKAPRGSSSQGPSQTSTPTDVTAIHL

[4] = biological target: T1, CDK6; assay: CDK6 inhibition by Caliper assay; format: biochemical; conditions: compound 100 nM
Protocol: as §2, §3, §4
Target sequence in this assay (Q00534 whole entry, species assumed): as the sequence (Q00534 whole entry) above
Target sequence in this assay (P30281 whole entry partner, species assumed): as the sequence (P30281 whole entry partner, species assumed) above

[5] = test system: T47D cells; assay: Inhibition of proliferation of T47D cells by CCK8 assay; format: cell-based; conditions: Homo sapiens, CCK8, 72 hours
Protocol: The inhibitory effect of the compound on the proliferation of T47D cells (commercially available from ATCC) was determined by the CCK8 method in vitro. The experimental steps were as follows: T47D cells were cultured in 1640 medium of 10% calf serum, seeded in a 96-well plate with 1.5×10^5/ml, and placed in a 37° C., 5% CO2 incubator. Each compound or the positive drug (Ribociclib) was dissolved in dimethyl sulfoxide (DMSO) to obtain a solution with a concentration of 100 mM, and then diluted to the desired concentration with the culture medium. The solutions were then added to the above 96-well plates. Each concentration has 3 wells with 50 μl per well. As a control, DMSO was diluted in the corresponding gradient and then added to the plate. After the 96-well plate was cultured in a 37° C., 5% CO2 cell incubator for 72 hours, 110 μl of CCK8 solution in 9% was added to each well, and it was cultured in the incubator for another 4 hours. The light absorption value at 450 nm was measured. The relative survival rate of the cells after the compound treatment was calculated based on the light absorption value. The IC50 of the compound against T47D cells was calculated by software.

[6] = test system: MCF-7 cells; assay: Inhibition of proliferation of MCF-7 cells by MTT assay; format: cell-based; conditions: Homo sapiens, MCF7, 48 hours
Protocol: The inhibitory effect of the compound on the proliferation of MCF-7 cells (commercially available from ATCC) was determined by the MTT method in vitro. […] Each compound was dissolved in dimethyl sulfoxide (DMSO) to obtain a solution with a concentration of 10 mM, and then diluted to the desired concentration with a phosphate buffer solution. The solution was added to the above 96-well plate. Each concentration has 2 wells with 10 μl per well. Each concentration was tested in duplicate. As a control, DMSO was diluted in the corresponding gradient and then added to the plate. After the 96-well plate was cultured in a 37° C., 5% CO2 cell incubator for 48 hours, 20 μl of MTT solution in 5 mg/ml was added to each well, and it was cultured in the incubator for another 3 to 4 hours. 100 μl of lysate was added to each well and the cells were further incubated overnight in the incubator to fully dissolve the formazan crystals generated. The light absorption value at 492 nm was measured. The relative survival rate of the cells after the compound treatment was calculated based on the light absorption value. The IC50 of the compound against MCF-7 cells was calculated by software.

Structure (SMILES)	Dmax at 1 µM [1]	Dmax at 1 µM [2]	inhibition at 0.1 µM [3]	inhibition at 0.1 µM [4]	IC50 [5]	IC50 [6]
CN(C)C(=O)c1cc2cnc(Nc3ccc(N4CCN(CCOCCOCCOCCNc5cccc6c5C(=O)N(C5CCC(=O)NC5=O)C6=O)CC4)cn3)nc2n1C1CCCC1 (stereo not drawn) [Compound 18]	> 90%	> 90%	80%	29%	8100 nM	
CC(=O)c1c(C)c2cnc(Nc3ccc(N4CCN(C(=O)COCCOCCNc5cccc6c5C(=O)N(C5CCC(=O)NC5=O)C6=O)CC4)cn3)nc2n(C2CCCC2)c1=O (stereo not drawn) [Compound 11]			93%	79%		
CN(C)C(=O)c1cc2cnc(Nc3ccc(N4CCN(CCCNC(=O)COc5cccc6c5C(=O)N(C5CCC(=O)NC5=O)C6=O)CC4)cn3)nc2n1C1CCCC1 (stereo not drawn) [Compound 46]	50 to 90%	> 90%				
CN(C)C(=O)c1cc2cnc(Nc3ccc(N4CCN(CCCCCNC(=O)COc5cccc6c5C(=O)N(C5CCC(=O)NC5=O)C6=O)CC4)cn3)nc2n1C1CCCC1 (stereo not drawn) [Compound 47]	50 to 90%	> 90%				
CN(C)C(=O)c1cc2cnc(Nc3ccc(N4CCN(CCOCCOCCOc5cccc6c5C(=O)N(C5CCC(=O)NC5=O)C6=O)CC4)cn3)nc2n1C1CCCC1 (stereo not drawn) [Compound 19]	50 to 90%	> 90%	80%	43%		
CC(=O)c1c(C)c2cnc(Nc3ccc(N4CCN(CCOCCOCCNc5cccc6c5C(=O)N(C5CCC(=O)NC5=O)C6=O)CC4)cn3)nc2n(C2CCCC2)c1=O (stereo not drawn) [Compound 15]			91%	69%		220 nM
CN(C)C(=O)c1cc2cnc(Nc3ccc(N4CCN(CCOCCNC(=O)COc5cccc6c5C(=O)N(C5CCC(=O)NC5=O)C6=O)CC4)cn3)nc2n1C1CCCC1 (stereo not drawn) [Compound 48]	50 to 90%	> 90%				
CN(C)C(=O)c1cc2cnc(Nc3ccc(N4CCNCC4)cn3)nc2n1C1CCCC1 [Ribociclib, reference compound]					68700 nM	
CN(C)C(=O)c1cc2cnc(Nc3ccc(N4CCN(CCCCCC(=O)Nc5cccc6c5C(=O)N(C5CCC(=O)NC5=O)C6=O)CC4)cn3)nc2n1C1CCCC1 (stereo not drawn) [Compound 3]	50 to 90%	> 90%	97%	86%	13700 nM	80 nM
CN(C)C(=O)c1cc2cnc(Nc3ccc(N4CCN(CCOCCOCCNc5cccc6c5C(=O)N(C5CCC(=O)NC5=O)C6=O)CC4)cn3)nc2n1C1CCCC1 (stereo not drawn) [Compound 17]	50 to 90%	50 to 90%	82%	25%		
CN(C)C(=O)c1cc2cnc(Nc3ccc(N4CCN(CCOCCOCCOCCOc5cccc6c5C(=O)N(C5CCC(=O)NC5=O)C6=O)CC4)cn3)nc2n1C1CCCC1 (stereo not drawn) [Compound 20]	50 to 90%	50 to 90%				
CC(=O)c1c(C)c2cnc(Nc3ccc(N4CCN(CCOCCOCCOCCNc5cccc6c5C(=O)N(C5CCC(=O)NC5=O)C6=O)CC4)cn3)nc2n(C2CCCC2)c1=O (stereo not drawn) [Compound 16]	50 to 90%	50 to 90%	97%	68%		300 nM

Next, values leading:

Dmax at 1 µM [1]	Dmax at 1 µM [2]	inhibition at 0.1 µM [3]	inhibition at 0.1 µM [4]	IC50 [5]	IC50 [6]	Structure (SMILES)
50 to 90%	50 to 90%					CC(=O)c1c(C)c2cnc(Nc3ccc(N4CCN(CCCCCCOc5cccc6c5C(=O)N(C5CCC(=O)NC5=O)C6=O)CC4)cn3)nc2n(C2CCCC2)c1=O (stereo not drawn) [Compound 23]
50 to 90%	50 to 90%					CC(=O)c1c(C)c2cnc(Nc3ccc(N4CCN(CCCCCCNc5cccc6c5C(=O)N(C5CCC(=O)NC5=O)C6=O)CC4)cn3)nc2n(C2CCCC2)c1=O (stereo not drawn) [Compound 26]
50 to 90%	50 to 90%					CC(=O)c1c(C)c2cnc(Nc3ccc(N4CCN(CCCOCCNc5cccc6c5C(=O)N(C5CCC(=O)NC5=O)C6=O)CC4)cn3)nc2n(C2CCCC2)c1=O (stereo not drawn) [Compound 27]
50 to 90%	50 to 90%	82%	84%		200 nM	CC(=O)c1c(C)c2cnc(Nc3ccc(N4CCN(CCOCCOCCOc5cccc6c5C(=O)N(C5CCC(=O)NC5=O)C6=O)CC4)cn3)nc2n(C2CCCC2)c1=O (stereo not drawn) [Compound 8]
> 90%	> 90%					CC(=O)c1c(C)c2cnc(Nc3ccc(N4CCN(CCCCCNC(=O)COc5cccc6c5C(=O)N(C5CCC(=O)NC5=O)C6=O)CC4)cn3)nc2n(C2CCCC2)c1=O (stereo not drawn) [Compound 38]
> 90%	> 90%	96%	91%			CC(=O)c1c(C)c2cnc(Nc3ccc(N4CCN(CCCCOc5cccc6c5C(=O)N(C5CCC(=O)NC5=O)C6=O)CC4)cn3)nc2n(C2CCCC2)c1=O (stereo not drawn) [Compound 24]
50 to 90%	50 to 90%					CC(=O)c1c(C)c2cnc(Nc3ccc(N4CCN(CCCCCCCCOc5cccc6c5C(=O)N(C5CCC(=O)NC5=O)C6=O)CC4)cn3)nc2n(C2CCCC2)c1=O (stereo not drawn) [Compound 25]
50 to 90%	50 to 90%					CC(=O)c1c(C)c2cnc(Nc3ccc(N4CCN(CCOCCCNc5cccc6c5C(=O)N(C5CCC(=O)NC5=O)C6=O)CC4)cn3)nc2n(C2CCCC2)c1=O (stereo not drawn) [Compound 28]
		92%	85%			CC(=O)c1c(C)c2cnc(Nc3ccc(N4CCN(S(=O)(=O)CCCCCOc5cccc6c5C(=O)N(C5CCC(=O)NC5=O)C6=O)CC4)cn3)nc2n(C2CCCC2)c1=O (stereo not drawn) [Compound 14]
50 to 90%	50 to 90%	93%	97%		160 nM	CC(=O)c1c(C)c2cnc(Nc3ccc(N4CCN(CCOCCOCCOCCOc5cccc6c5C(=O)N(C5CCC(=O)NC5=O)C6=O)CC4)cn3)nc2n(C2CCCC2)c1=O (stereo not drawn) [Compound 21]
